Test results reported in US20230365592A1 (Agios Pharmaceuticals, Inc., priority 2022, published 2023).

These molecules were tested against T1, human PAH with the R408W mutation (Homo sapiens, UniProt P00439, R408W) (assay: Cell Based Phenylalanine Flux Assay). Details: A375 cells expressing human PAH R408W; 24 hrs compound incubation; 13C-Tyrosine by LC-MS; average where tested multiple times; read-out: AC50.
T1 construct: expressed in transfected cells
T1 sequence (P00439 1-452 R408W): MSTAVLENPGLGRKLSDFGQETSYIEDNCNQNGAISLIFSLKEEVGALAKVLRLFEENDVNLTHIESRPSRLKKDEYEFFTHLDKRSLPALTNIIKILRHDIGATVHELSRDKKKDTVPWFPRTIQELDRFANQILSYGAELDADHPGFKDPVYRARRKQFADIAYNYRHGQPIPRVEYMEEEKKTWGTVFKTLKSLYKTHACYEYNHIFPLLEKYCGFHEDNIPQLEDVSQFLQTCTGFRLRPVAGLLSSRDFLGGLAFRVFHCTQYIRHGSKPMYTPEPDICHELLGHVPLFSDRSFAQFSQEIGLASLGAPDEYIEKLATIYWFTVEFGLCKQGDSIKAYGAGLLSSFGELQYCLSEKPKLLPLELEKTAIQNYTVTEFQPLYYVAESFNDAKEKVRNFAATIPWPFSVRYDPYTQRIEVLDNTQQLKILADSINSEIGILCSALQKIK
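Also: after compound treatment, cells received sepiapterin plus isotope-labelled Phenylalanine for 4 hours, then labelled Tyrosine in the medium was quantified, 10-point 2-fold dilution series run in duplicate.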

AC50 [µM]	SMILES
> 5	CC(C)c1cccn2nc([C@H]3c4nc[nH]c4CCN3C(=O)c3nnc(-c4ccn(C)n4)o3)cc12 [Example 1950, (R)-(4-(4-isopropylpyrazolo[1,5-a]pyridin-2-yl)-1,4,6,7-tetrahydro-5H-imidazo[4,5-c]pyridin-5-yl)(5-(1-methyl-1H-pyrazol-3-yl)-1,3,4-oxadiazol-2-yl)methanone]
< 0.5	CC(C)c1cccn2nc([C@@H]3c4nc[nH]c4CCN3C(=O)c3nnc(-c4ccn(C)n4)o3)cc12 [Example 1951, (S)-(4-(4-isopropylpyrazolo[1,5-a]pyridin-2-yl)-1,4,6,7-tetrahydro-5H-imidazo[4,5-c]pyridin-5-yl)(5-(1-methyl-1H-pyrazol-3-yl)-1,3,4-oxadiazol-2-yl)methanone]
1 to 5	Fc1cccc(N2CCc3[nH]cnc3[C@@H]2c2cc3c(F)cccn3n2)n1 [Example 1954, (R)-4-(4-fluoropyrazolo[1,5-a]pyridin-2-yl)-5-(6-fluoropyridin-2-yl)-4,5,6,7-tetrahydro-1H-imidazo[4,5-c]pyridine]
< 0.5	Fc1cccc(N2CCc3[nH]cnc3[C@H]2c2cc3c(F)cccn3n2)n1 [Example 1955, (S)-4-(4-fluoropyrazolo[1,5-a]pyridin-2-yl)-5-(6-fluoropyridin-2-yl)-4,5,6,7-tetrahydro-1H-imidazo[4,5-c]pyridine]
0.5 to 1	CC(C)(F)c1ncc(C(=O)N2CCc3[nH]cnc3[C@H]2c2cc3ccccn3n2)o1 [Example 1957, (S)-(2-(2-fluoropropan-2-yl)oxazol-5-yl)(4-(pyrazolo[1,5-a]pyridin-2-yl)-1,4,6,7-tetrahydro-5H-imidazo[4,5-c]pyridin-5-yl)methanone]
0.5 to 1	Cc1cccn2nc([C@@H]3c4nc[nH]c4CCN3C(=O)c3cnc(-c4cnn(C)c4)o3)cc12 [Example 1960, (S)-(2-(1-methyl-1H-pyrazol-4-yl)oxazol-5-yl)(4-(4-methylpyrazolo[1,5-a]pyridin-2-yl)-1,4,6,7-tetrahydro-5H-imidazo[4,5-c]pyridin-5-yl)methanone]
> 5	Cc1cccn2nc([C@H]3c4nc[nH]c4CCN3C(=O)c3cnc(-c4cnn(C)c4)o3)cc12 [Example 1961, (R)-(2-(1-methyl-1H-pyrazol-4-yl)oxazol-5-yl)(4-(4-methylpyrazolo[1,5-a]pyridin-2-yl)-1,4,6,7-tetrahydro-5H-imidazo[4,5-c]pyridin-5-yl)methanone]
0.5 to 1	Cc1cccn2nc([C@@H]3c4nc[nH]c4CCN3C(=O)c3cnc(-c4cnn(C)c4C)o3)cc12 [Example 1962, (S)-(2-(1,5-dimethyl-1H-pyrazol-4-yl)oxazol-5-yl)(4-(4-methylpyrazolo[1,5-a]pyridin-2-yl)-1,4,6,7-tetrahydro-5H-imidazo[4,5-c]pyridin-5-yl)methanone]
0.5 to 1	Cc1cccn2nc([C@@H]3c4nc[nH]c4CCN3C(=O)c3cnc(-c4ccccn4)o3)cc12 [Example 1964, (S)-(4-(4-methylpyrazolo[1,5-a]pyridin-2-yl)-1,4,6,7-tetrahydro-5H-imidazo[4,5-c]pyridin-5-yl)(2-(pyridin-2-yl)oxazol-5-yl)methanone]
> 5	Cc1cccn2nc([C@H]3c4nc[nH]c4CCN3C(=O)c3cnc(-c4ccccn4)o3)cc12 [Example 1965, (R)-(4-(4-methylpyrazolo[1,5-a]pyridin-2-yl)-1,4,6,7-tetrahydro-5H-imidazo[4,5-c]pyridin-5-yl)(2-(pyridin-2-yl)oxazol-5-yl)methanone]
< 0.5	O=C(c1nnc(-c2ccccn2)s1)N1CCc2[nH]cnc2[C@H]1c1cc2ccccn2n1 [Example 1966, (S)-(4-(pyrazolo[1,5-a]pyridin-2-yl)-1,4,6,7-tetrahydro-5H-imidazo[4,5-c]pyridin-5-yl)(5-(pyridin-2-yl)-1,3,4-thiadiazol-2-yl)methanone]
> 5	O=C(c1nnc(-c2ccccn2)s1)N1CCc2[nH]cnc2[C@@H]1c1cc2ccccn2n1 [Example 1967, (R)-(4-(pyrazolo[1,5-a]pyridin-2-yl)-1,4,6,7-tetrahydro-5H-imidazo[4,5-c]pyridin-5-yl)(5-(pyridin-2-yl)-1,3,4-thiadiazol-2-yl)methanone]
0.5 to 1	Cc1cccn2nc([C@@H]3c4nc[nH]c4CCN3C(=O)c3nnc(-c4cncnc4)o3)cc12 [Example 1972, (S)-(4-(4-methylpyrazolo[1,5-a]pyridin-2-yl)-1,4,6,7-tetrahydro-5H-imidazo[4,5-c]pyridin-5-yl)(5-(pyrimidin-5-yl)-1,3,4-oxadiazol-2-yl)methanone]
> 5	Cc1cccn2nc([C@H]3c4nc[nH]c4CCN3C(=O)c3nnc(-c4cncnc4)o3)cc12 [Example 1973, (R)-(4-(4-methylpyrazolo[1,5-a]pyridin-2-yl)-1,4,6,7-tetrahydro-5H-imidazo[4,5-c]pyridin-5-yl)(5-(pyrimidin-5-yl)-1,3,4-oxadiazol-2-yl)methanone]
0.5 to 1	O=C(c1nnc(-c2cncnc2)o1)N1CCc2[nH]cnc2[C@H]1c1cc2c(F)cccn2n1 [Example 1974, (S)-(4-(4-fluoropyrazolo[1,5-a]pyridin-2-yl)-1,4,6,7-tetrahydro-5H-imidazo[4,5-c]pyridin-5-yl)(5-(pyrimidin-5-yl)-1,3,4-oxadiazol-2-yl)methanone]
> 5	O=C(c1nnc(-c2cncnc2)o1)N1CCc2[nH]cnc2[C@@H]1c1cc2c(F)cccn2n1 [Example 1975, (R)-(4-(4-fluoropyrazolo[1,5-a]pyridin-2-yl)-1,4,6,7-tetrahydro-5H-imidazo[4,5-c]pyridin-5-yl)(5-(pyrimidin-5-yl)-1,3,4-oxadiazol-2-yl)methanone]
> 5	Fc1cccn2nc([C@H]3c4nc[nH]c4CCN3c3ccccn3)cc12 [Example 1976, (R)-4-(4-fluoropyrazolo[1,5-a]pyridin-2-yl)-5-(pyridin-2-yl)-4,5,6,7-tetrahydro-1H-imidazo[4,5-c]pyridine]
0.5 to 1	Fc1cccn2nc([C@@H]3c4nc[nH]c4CCN3c3ccccn3)cc12 [Example 1977, (S)-4-(4-fluoropyrazolo[1,5-a]pyridin-2-yl)-5-(pyridin-2-yl)-4,5,6,7-tetrahydro-1H-imidazo[4,5-c]pyridine]
> 5	FC(F)c1cccn2nc([C@H]3c4nc[nH]c4CCN3c3ccccn3)cc12 [Example 1978, (R)-4-(4-(difluoromethyl)pyrazolo[1,5-a]pyridin-2-yl)-5-(pyridin-2-yl)-4,5,6,7-tetrahydro-1H-imidazo[4,5-c]pyridine]
< 0.5	FC(F)c1cccn2nc([C@@H]3c4nc[nH]c4CCN3c3ccccn3)cc12 [Example 1979, (S)-4-(4-(difluoromethyl)pyrazolo[1,5-a]pyridin-2-yl)-5-(pyridin-2-yl)-4,5,6,7-tetrahydro-1H-imidazo[4,5-c]pyridine]
0.5 to 1	CC(C)c1cccn2nc([C@@H]3c4nc[nH]c4CCN3C(=O)c3nnc(-c4ncccn4)o3)cc12 [Example 1981, (S)-(4-(4-isopropylpyrazolo[1,5-a]pyridin-2-yl)-1,4,6,7-tetrahydro-5H-imidazo[4,5-c]pyridin-5-yl)(5-(pyrimidin-2-yl)-1,3,4-oxadiazol-2-yl)methanone]
< 0.5	CC(C)c1cccn2nc([C@@H]3c4nc[nH]c4CCN3C(=O)c3nnc(-c4ccn(C(F)(F)F)n4)o3)cc12 [Example 1984, (S)-(4-(4-isopropylpyrazolo[1,5-a]pyridin-2-yl)-1,4,6,7-tetrahydro-5H-imidazo[4,5-c]pyridin-5-yl)(5-(1-(trifluoromethyl)-1H-pyrazol-3-yl)-1,3,4-oxadiazol-2-yl)methanone]
> 5	CC(C)c1cccn2nc([C@H]3c4nc[nH]c4CCN3C(=O)c3nnc(-c4ccn(C(F)(F)F)n4)o3)cc12 [Example 1985, (R)-(4-(4-isopropylpyrazolo[1,5-a]pyridin-2-yl)-1,4,6,7-tetrahydro-5H-imidazo[4,5-c]pyridin-5-yl)(5-(1-(trifluoromethyl)-1H-pyrazol-3-yl)-1,3,4-oxadiazol-2-yl)methanone]
< 0.5	O=C(c1ocnc1C1CC1)N1CCc2[nH]cnc2[C@H]1c1cc2c(F)cccn2n1 [Example 1986, (S)-(4-cyclopropyloxazol-5-yl)(4-(4-fluoropyrazolo[1,5-a]pyridin-2-yl)-1,4,6,7-tetrahydro-5H-imidazo[4,5-c]pyridin-5-yl)methanone]
1 to 5	O=C(c1ocnc1C1CC1)N1CCc2[nH]cnc2[C@@H]1c1cc2c(F)cccn2n1 [Example 1987, (R)-(4-cyclopropyloxazol-5-yl)(4-(4-fluoropyrazolo[1,5-a]pyridin-2-yl)-1,4,6,7-tetrahydro-5H-imidazo[4,5-c]pyridin-5-yl)methanone]
0.5 to 1	Cc1cccn2nc([C@@H]3c4nc[nH]c4CCN3C(=O)c3ncco3)cc12 [Example 1989, (S)-(4-(4-methylpyrazolo[1,5-a]pyridin-2-yl)-1,4,6,7-tetrahydro-5H-imidazo[4,5-c]pyridin-5-yl)(oxazol-2-yl)methanone]
0.5 to 1	O=C(c1nnc(C2CC2)s1)N1CCc2[nH]cnc2[C@H]1c1cc2ccccn2n1 [Example 1991, (S)-(5-cyclopropyl-1,3,4-thiadiazol-2-yl)(4-(pyrazolo[1,5-a]pyridin-2-yl)-1,4,6,7-tetrahydro-5H-imidazo[4,5-c]pyridin-5-yl)methanone]
> 5	O=C(c1nnc(C2CC2)s1)N1CCc2[nH]cnc2[C@@H]1c1cc2c(F)cccn2n1 [Example 1992, (R)-(5-cyclopropyl-1,3,4-thiadiazol-2-yl)(4-(4-fluoropyrazolo[1,5-a]pyridin-2-yl)-1,4,6,7-tetrahydro-5H-imidazo[4,5-c]pyridin-5-yl)methanone]
